From patent US7855292B2, “Sulfonamide compounds” (Janssen Pharmaceutica NV, priority 2004, dated 2010) come the findings set out here.

Structures are written as SMILES.

One experiment deals with T1, CCK-1 receptor (Homo sapiens, UniProt P32238).
T1 construct: expressed in transfected cells; host or cells: CHO-K1
T1 sequence (P32238 1-428): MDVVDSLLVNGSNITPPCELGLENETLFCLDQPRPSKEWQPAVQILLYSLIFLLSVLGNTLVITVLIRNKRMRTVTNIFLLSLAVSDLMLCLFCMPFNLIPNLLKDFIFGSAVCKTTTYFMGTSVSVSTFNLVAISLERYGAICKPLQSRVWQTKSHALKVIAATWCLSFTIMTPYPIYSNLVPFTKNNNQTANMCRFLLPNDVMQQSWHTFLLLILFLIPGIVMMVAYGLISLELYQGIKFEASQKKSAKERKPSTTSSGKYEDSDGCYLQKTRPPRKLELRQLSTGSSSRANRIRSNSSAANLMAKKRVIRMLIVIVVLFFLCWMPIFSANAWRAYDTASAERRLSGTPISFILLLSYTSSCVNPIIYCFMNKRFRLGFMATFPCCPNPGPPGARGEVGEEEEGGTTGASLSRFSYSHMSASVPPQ
In words: CCK1 binding assay ([125I]-BH-CCK-8S displacement, CHO-K1 membranes). To be noted: membranes of CHO-K1 cells stably transfected with the CCK-1 receptor, 20 pM [125I]-BH-CCK-8S, 0.3 μM PD-134,308 present, 60 min at 21±3° C.; for Ki: read-out: CCK1 pKi (converted). The protocol: 1. CCK1 Assay Development and Data Generation
CHO-K1 cells that had undergone stable transfection with the CCK-1 receptor were grown in DMEM supplemented with L-glutamine (2 mM), penicillin (50 units/mL) and streptomycin (50 μg/mL). Cells were cultured under continuous G418 selection (2 mM) and were harvested using a rubber cell scraper. CHO-K1 cells were sub-cultured a maximum of ten times before being reseeded from the original stocks.
Membranes were prepared from the stably transfected CHO-K1 cells. Frozen cell pellets (−40° C.) were thawed in 14 mL of buffer A (10 mM HEPES, 130 mM NaCl, 4.7 mM KCl, 5 mM MgCl, 1 mM EGTA and 15.4 mg/100 mL bacitracin at pH 7.2), adapted from Harper et al. (Br. J. Pharmacol. 1996, 118:1717-1726). The thawed pellets were homogenized using a Polytron PT-10 (7×1 s). The homogenates were centrifuged for 5 min at 1500 rpm (600×g), and the resulting pellets were discarded. The supernatants were re-centrifuged in order to collect the receptor-membrane pellets (25 min 15,000 rpm; 39,800×g), which were re-suspended in buffer A.
All assays were conducted in 96-well plates (GF/B millipore filter plates) using buffer A, with 0.3 μM PD-134,308, for the dilutions. The CCK-2 receptor ligand was included to eliminate the contribution of this receptor subtype to the binding. For the optimal cell number determination experiments 20 pM [^125I]-BH-CCK-8S (50 μL […] solution) was incubated with a range of cell concentrations ([…] to 12.5×10^5 cells/well) in a total volume of 150 μL. Total binding of [^125I]-BH-CCK-8S was determined in the presence of 15 μL of buffer A. Non-specific binding of [^125I]-BH-CCK-8S was determined in the presence of 15 μL of 100 μM 2-naphthalenesulphonyl L-aspartyl-(2-phenethyl)amide (2-NAP: see R. A. Hull et al. Br. J. Pharmacol. 1993, 108:734-740), a CCK-1 receptor selective antagonist that is structurally unrelated to the radioligand [^125I]-BH-CCK-8S. The assay preparation was incubated for 1 h at 21±3° C., and then the assay was terminated upon rapid filtration of the preparation under reduced pressure. The loaded filters were washed three times using undiluted PBS ([…]), and then the residues were transferred to 5 mL scintillation tubes. Bound radioactivity was determined using a gamma counter (count time=1 min). […] To validate the radioligand concentration and incubation time for the assay, saturation and kinetic binding studies were also conducted (see M. F. Morton, The Pharmacological Characterization of Cholecystokinin Receptors in the Human Gastrointestinal Tract. PhD Thesis, University of London, 2000). […] The assay was then terminated according to the procedure outlined above.
(§1) 3. Data Analysis for CCK1 and CCK2 Binding Assays
The pKi values were determined using the equation of Y.-C. Cheng and W. H. Prusoff (Biochem. Pharmacol., 1973, 22(23):3099-3108):
(§2) [formula] To circumvent problems associated with computer-assisted data analysis of compounds with low affinity, the data obtained in the current study were weighted according to a method described by Morton. In brief, 100% and 0% specific binding were defined independently using total binding and binding obtained in the presence of a high concentration of the reference antagonist, 2-NAP.

The target of a further experiment is T2, CCK2 receptor (Homo sapiens, UniProt P32239).
T2 construct: analyzed for ZFP expression as well as CCK2R induction upon addition of doxycycline to the culture medium; endogenous in cells
T2 sequence (P32239 1-447): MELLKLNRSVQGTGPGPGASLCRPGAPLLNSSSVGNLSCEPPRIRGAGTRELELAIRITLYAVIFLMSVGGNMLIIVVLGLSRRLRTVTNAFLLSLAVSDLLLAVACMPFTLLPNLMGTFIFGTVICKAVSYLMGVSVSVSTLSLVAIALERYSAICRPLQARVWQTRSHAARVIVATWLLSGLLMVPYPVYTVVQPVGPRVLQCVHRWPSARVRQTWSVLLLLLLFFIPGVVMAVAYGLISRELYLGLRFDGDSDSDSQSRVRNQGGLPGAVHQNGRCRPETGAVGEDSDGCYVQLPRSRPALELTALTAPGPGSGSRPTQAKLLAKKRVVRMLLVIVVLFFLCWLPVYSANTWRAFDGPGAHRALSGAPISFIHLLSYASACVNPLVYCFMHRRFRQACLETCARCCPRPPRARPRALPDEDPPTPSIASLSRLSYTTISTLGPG
In words: CCK2 binding assay ([125I]-BH-CCK-8S displacement, HEKZFP membranes). The following applies: membranes of doxycycline-induced HEKZFP cells, 20 pM [125I]-BH-CCK-8S, 60 min at 21±3° C.; for Ki: read-out: CCK2 pKi (converted). The procedure:
2. CCK2 Assay Development and Data Generation
Zinc Finger Proteins (ZFP) specific for the CCK2R gene were identified by Sangamo Biosciences. The ZFP domain was fused with the herpes simplex virus VP16 activation domain, and the fusion protein was subsequently cloned into the pcDNA3 mammalian expression vector (Invitrogen, San Diego, Calif.). […] After 2 weeks of selection in culture medium containing […] Zeocin (Invitrogen), sixty drug-resistant stable clones were isolated and analyzed for ZFP expression as well as CCK2R induction upon addition of doxycycline to the culture medium.
HEKZFP cells were grown in DMEM supplemented with L-glutamine (2 mM), penicillin (50 units/mL) and streptomycin (50 μg/mL) and 10% FBS (v/v).
Membranes were prepared from the HEKZFP cells after induction. […] The thawed pellets were homogenized using a Polytron PT-10 (7×1 s). The homogenates were centrifuged for 5 min at 1500 rpm (600×g), and the resulting pellets were discarded. The supernatants were re-centrifuged in order to collect the receptor-membrane pellets (25 min 15,000 rpm; 39,800×g), which were re-suspended in buffer A.
The assay preparation was incubated for 1 h at 21±3° C., and then the assay was terminated by rapid filtration of the preparation under reduced pressure. The loaded filters were washed three times using undiluted PBS (100 μL), and then 100 μL of scintillation fluid was added to the filter plate. Bound radioactivity was determined using a Topcount (Packard BioScience, Meriden, Conn.) with a count time of 1 min. […] To validate the radioligand concentration and incubation time for the assay, saturation and kinetic binding studies were also conducted (see M. F. Morton, The Pharmacological Characterization of Cholecystokinin Receptors in the Human Gastrointestinal Tract. PhD Thesis, University of London, 2000). […] The assay was then terminated according to the procedure outlined above.
as §1
The pKi values were determined using the equation of Y.-C.
as §2

With `O=C(N[C@@H](Cc1ccc(Cl)c(Cl)c1)C(=O)O)c1ccc(Br)cc1NS(=O)(=O)c1cccc2nsnc12` [Example 131, (S)-2-[2-(Benzo[1,2,5]thiadiazole-4-sulfonylamino)-4-bromo-benzoylamino]-3-(3,4-dichloro-phenyl)-propionic acid], the values for the Ki at CCK-1 receptor and at CCK2 receptor were 158 nM and 15.8 nM, respectively.
As for `O=C(N[C@@H](Cc1ccc(Cl)cc1)C(=O)O)c1cc(Cl)c(Cl)cc1NS(=O)(=O)c1cccc2nsnc12` [Example 68, (S)-2-[2-(Benzo[1,2,5]thiadiazole-4-sulfonylamino)-4,5-dichloro-benzoylamino]-3-(4-chloro-phenyl)-propionic acid], the Ki at CCK-1 receptor was 316 nM; at CCK2 receptor it was 31.6 nM.
As for `CC(Cc1ccc(Cl)cc1)NC(=O)c1ccc(Br)cc1NS(=O)(=O)c1cccc2scnc12` (centres unmarked) [Example 23, 2-(Benzothiazole-4-sulfonylamino)-4-bromo-N-[2-(4-chloro-phenyl)-1-methyl-ethyl]-benzamide], the Ki was 1000 nM at CCK-1 receptor and 631 nM on CCK2 receptor.
For `O=C(N[C@@H](Cc1ccc(Cl)c(Cl)c1)C(=O)Nc1ccccc1)c1ccc(Cl)cc1NS(=O)(=O)c1cccc2nsnc12` [Example 139, (S)-2-(Benzo[1,2,5]thiadiazole-4-sulfonylamino)-4-chloro-N-[2-(3,4-dichloro-phenyl)-phenylcarbamoyl-ethyl]-benzamide], in that order: 79.4 nM and 631 nM.
Consider `O=C(N[C@@H](Cc1ccc(Cl)c(Br)c1)C(=O)O)c1cc(Cl)c(Cl)cc1NS(=O)(=O)c1cccc2nccnc12` [Example 148, (S)-3-(3-Bromo-4-chloro-phenyl)-2-[4,5-dichloro-2-(quinoxaline-5-sulfonylamino)-benzoylamino]-propionic acid], for which the Ki was 251 nM on CCK-1 receptor and 63.1 nM at CCK2 receptor.
Take `COC(=O)[C@H](Cc1ccc(Cl)c(I)c1)NC(=O)c1ccc(I)cc1NS(=O)(=O)c1cccc2nsnc12` [Example 136, (S)-2-[2-(Benzo[1,2,5]thiadiazole-4-sulfonylamino)-4-iodo-benzoylamino]-3-(4-chloro-3-iodo-phenyl)-propionic acid methyl ester]: the figures for the Ki at CCK-1 receptor and on CCK2 receptor were 39.8 nM and 316 nM, respectively.
For the molecule `C[C@@H](NC(=O)c1ccc(Cl)cc1NS(=O)(=O)c1cccc2nsnc12)[C@@H](O)c1cccc(Br)c1` [Example 108, 2-(Benzo[1,2,5]thiadiazole-4-sulfonylamino)-N-[(2S,1R)-2-(3-bromo-phenyl)-2-hydroxy-1-methyl-ethyl]-4-chloro-benzamide], the “CCK1 pKi” value on CCK-1 receptor was 7.6. For the same molecule, at CCK2 receptor, the “CCK2 pKi” value was 5.9.
With `C[C@H](CNC(=O)c1ccc(Br)cc1NS(=O)(=O)c1c(F)cccc1F)c1ccccc1` [Example 37, (S)-4-Bromo-2-(2,6-difluoro-benzenesulfonylamino)-N-(2-phenyl-propyl)-benzamide], the values for the Ki on CCK-1 receptor and on CCK2 receptor were 398 nM and 3980 nM, respectively.
For `O=C(N[C@@H](Cc1ccc(Cl)cc1Cl)C(=O)O)c1ccc(I)cc1NS(=O)(=O)c1cccc2nsnc12` [Example 133, (S)-2-[2-(Benzo[1,2,5]thiadiazole-4-sulfonylamino)-4-iodo-benzoylamino]-3-(2,4-dichloro-phenyl)-propionic acid] the same measures were 398 nM and 31.6 nM.
For `CC(CNC(=O)c1c(Cl)cccc1NS(=O)(=O)c1cccc2nsnc12)c1ccc(Cl)c(Cl)c1` (centres unmarked) [Example 81, 2-(Benzo[1,2,5]thiadiazole-4-sulfonylamino)-6-chloro-N-[2-(3,4-dichloro-phenyl)-propyl]-benzamide], in that order: 794 nM and 2000 nM.
For `C[C@@H](NC(=O)c1ccc(Cl)cc1NS(=O)(=O)c1cccc2nsnc12)[C@@H](O)c1ccc(Cl)cc1` [Example 55, 2-(Benzo[1,2,5]thiadiazole-4-sulfonylamino)-4-chloro-N-[(1R,2S)-2-(4-chloro-phenyl)-2-hydroxy-1-methyl-ethyl]-benzamide], in that order: 39.8 nM and 1000 nM.
With `COC(=O)[C@H](Cc1csc2ccccc12)NC(=O)c1ccc(Cl)cc1NS(=O)(=O)c1cccc2nccnc12` [Example 65, (S)-3-Benzo[b]thiophen-3-yl-2-[4-chloro-2-(quinoxaline-5-sulfonylamino)-benzoylamino]-propionic acid methyl ester], the Ki on CCK-1 receptor was 316 nM; at CCK2 receptor it was 794 nM.
On to `O=C(N[C@@H](Cc1ccc(Cl)c(Cl)c1)C(=O)O)c1ccc(Cl)cc1NS(=O)(=O)c1c(F)cccc1F` [Example 119, (S)-2-[4-Chloro-2-(2,6-difluoro-benzenesulfonylamino)-benzoylamino]-3-(3,4-dichloro-phenyl)-propionic acid], for which the figures for the Ki at CCK-1 receptor and at CCK2 receptor were 501 nM and 200 nM, respectively.
